Several values for one entry are separate records, joined by “and”; a condition that tells them apart may be missing. Equal values may be shown once. Read-outs that look alike come from different tables or passages of the source.
What was measured:
[1] = Drug loading of multivesicular liposomes (MVL): drug concentration of suspension relative to lipocrit; format: physicochemical
[2] = Percent encapsulation (percent yield) of drug in final MVL suspension; format: physicochemical
[3] = cited from earlier work
[4] = system: MG-63 human osteosarcoma cell line; experiment: Mitogenic bioassay of extracted IGF-I with MTT stain; format: cell-based; conditions: mitogenic response of quiescent MG-63 cells, versus unencapsulated standard
Excerpt: (§1) The physicochemical integrity of the encapsulated IGF-I was confirmed by SDS-PAGE assay using Novex NuPage gel as well as by RP-HPLC assay using a C18 symmetric column. The encapsulated protein was extracted using 75:25 IPA:2N Citric Acid. The bioactivity of the encapsulated IGF-I was confirmed by a mitogenic bioassay using MG-63 human osteosarcoma cell line and 3-(4,5-dimethylthiazol-2-yl)-2,5-diphenyltetrazolium bromide (MTT) stain according to the method of W. Lopaczynski et al., Regulatory Peptides, 48:207-216, 1993. The MG-63 cells were obtained from the American Type Culture Collection (ATCC# CRL 1427), and the dose dependent mitogenic response of quiescent MG-63 cells to added IGF-I was determined.

[5] = Percent free drug in MVL suspension; conditions: 125 mL scale, first aqueous: 15 mg/mL, 8.0 w/v % sucrose, 20 mM ammonium citrate, ~321 mOsm
Method: As used herein, "percent free drug" means the ratio of the amount of drug exterior to the liposomes in the final liposome suspension to the total amount of drug in the final suspension (the final product) multiplied by 100. [formula]
125 mL of first aqueous solution was mixed with 125 mL of the lipid component using a high-shear double-mixing vessel system to obtain the first emulsion. […] The aqueous and organic components were mixed at a speed of 8000 rpm for 30 minutes in the first emulsion vessel. […]
Percent free drug was calculated as the percent ratio of the amount of drug in the supernatant to the amount of drug in the final suspension. Percent free drug can also be calculated as the percent ratio of the drug concentration in the supernatant to that in the suspension, times (1-lipocrit) Drug loading, which measures the amount of drug encapsulated in each unit of the encapsulated volume, is approximately equal to and can be estimated (assuming low percent free drug) as the ratio of the drug concentration of the final liposome suspension to the lipocrit. […]
Using a reference absorbance standard established based on drug solutions of known concentration in the same dissolving solution, the concentrations of drug in the suspension and supernatant were calculated.

[6] = Integrity of encapsulated IGF-I by SDS-PAGE and RP-HPLC / characterization of encapsulated protein; format: physicochemical
Excerpt: as §1

[7] = Solubility of IGF-I versus pH; format: physicochemical
Method: Further studies were conducted using in the first aqueous component concentrations of IGF-I ranging from 10 to 80 mg/mL, either with or without 100 mM HCl or 25 mM citric acid at constant pH. […] Studies have shown that up to about 300 mg/mL of IGF-I is soluble at a pH below 5.

[8] = Lipocrit of MVL suspension; format: physicochemical; conditions: 125 mL scale, first aqueous: 15 mg/mL, 20 mM ammonium citrate
Method: As used herein, "lipocrit," which is defined in analogy to hematocrit, means the ratio of the volume occupied by the liposomes to the total suspension volume multiplied by 100. [formula]
Thus, percent yield of drug was calculated as the ratio of the drug concentration in the final suspension times the volume of the final suspension to the drug concentration in the first aqueous solution times the volume of the first aqueous solution. Lipocrit was calculated, in analogy to hematocrit, as the percent ratio of the pellet volume to the suspension volume (see conditions below for obtaining the pellet volume).
To calculate the lipocrit about 50 μL of the multivesicular liposome suspension was taken up into a capillary tube, and end of the tube was sealed while ensuring that the suspension contained no air bubbles. The suspension was spun in a centrifuge at 600×g for 10 minutes to obtain a pellet layer and a supernatant layer. The percent ratio of the length of the tube occupied by the pellet to that occupied by the suspension gives the lipocrit.

[9] = prior-art multivesicular liposomes; cited from earlier work
[10] = prior-art multivesicular liposomes; cited from earlier work; remark: listed apart in the source

Q: Which “effect of osmolarity of first aqueous solution on drug loading” value [1] does the source give for `CC(C)C[C@H](NC(=O)[C@H](Cc1ccccc1)NC(=O)CNC(=O)CNC(=O)[C@@H](N)Cc1ccc(O)cc1)C(=O)O` [Enkephalin, reference compound] here?
A: decreasing of osmolarity resulting in increased drug loading

Q: What about the “Drug Loading” value ([1]; first aqueous: 5 mg/mL, 0.0 w/v % sucrose, 25 mM citric acid, est. 35.5 mOsm) of the same compound?
A: 50.8 mg/mL

Q: And the “Drug Loading” value ([1]; first aqueous: 5 mg/mL, 2.5 w/v % sucrose, 25 mM citric acid, est. 111.5 mOsm)?
A: 13.4 mg/mL

Q: What about the “Drug Loading” value ([1]; first aqueous: 5 mg/mL, 5.0 w/v % sucrose, 25 mM citric acid, est. 191.5 mOsm) of the same compound?
A: 6.4 mg/mL

Q: What about the “% Yield” value [2] of the same compound?
A: 77.5% and 71.8% and 72.5%

Q: And the “effect of osmolarity of first aqueous solution on percent yield” value [2]?
A: not significantly changed by a decrease in osmolarity

Q: Which results are given for `CCNC(=O)[C@@H]1CCCN1C(=O)[C@H](CCCNC(=N)N)NC(=O)[C@H](CC(C)C)NC(=O)[C@@H](CC(C)C)NC(=O)[C@H](Cc1ccc(O)cc1)NC(=O)[C@H](CO)NC(=O)[C@H](Cc1c[nH]c2ccccc12)NC(=O)[C@H](Cc1c[nH]cn1)NC(=O)[C@@H]1CCC(=O)N1` [Leuprolide, reference compound]?
A: effect of osmolarity of first aqueous solution on drug loading [1]: decreasing of osmolarity resulting in increased drug loading; Drug Loading ([1]; first aqueous: 15 mg/mL, 4.0 w/v % sucrose, 100 mM phosphoric acid, est. 261.6 mOsm): 17.9 mg/mL; Drug Loading ([1]; first aqueous: 15 mg/mL, 6.0 w/v % sucrose, 100 mM phosphoric acid, est. 328.6 mOsm): 10.9 mg/mL; effect of osmolarity of first aqueous solution on percent yield ([2]; MVL): A similar percent yield was maintained across the range of osmolarities tested; % Yield ([2]; MVL, first aqueous: 15 mg/mL, 4.0 w/v % sucrose, 100 mM phosphoric acid, est. 261.6 mOsm): 54.1%; % Yield ([2]; MVL, first aqueous: 15 mg/mL, 6.0 w/v % sucrose, 100 mM phosphoric acid, est. 328.6 mOsm): 56.2%

Q: What does the source list for `OC[C@H]1O[C@@](CO)(O[C@H]2O[C@H](CO)[C@@H](O)[C@H](O)[C@H]2O)[C@@H](O)[C@@H]1O` [sucrose]?
A: Osmolarity for sucrose ([3]; 0.5 w/v %): 15 mOsm; Osmolarity for sucrose ([3]; 1.0 w/v %): 30 mOsm; Osmolarity for sucrose ([3]; 1.5 w/v %): 45 mOsm; Osmolarity for sucrose ([3]; 2.0 w/v %): 60 mOsm; Osmolarity for sucrose ([3]; 2.5 w/v %): 76 mOsm; Osmolarity for sucrose ([3]; 3.0 w/v %): 91 mOsm; Osmolarity for sucrose ([3]; 4.0 w/v %): 123 mOsm; Osmolarity for sucrose ([3]; 5.0 w/v %): 156 mOsm; Osmolarity for sucrose ([3]; 6.0 w/v %): 190 mOsm; Osmolarity for sucrose ([3]; 7.0 w/v %): 225 mOsm; Osmolarity for sucrose ([3]; 8.0 w/v %): 261 mOsm

Q: With “IGF-I: insulin-like growth factor I (IGF-I), encapsulated in MVLs” as the compound, how does the “bioactivity of extracted IGF-I” value [4] read?
A: approximately equivalent to that of an unencapsulated standard

Q: And the “% Free IGF-I” value [5]?
A: 0.18%

Q: What about the “physicochemical integrity of encapsulated IGF-I” value ([6]; SDS-PAGE and RP-HPLC, extracted with 75:25 IPA:2N citric acid) of the same compound?
A: confirmed

Q: And the “degradation of encapsulated protein” value ([6]; Table 6A formulations (100 mM HCl))?
A: showed some degradation

Q: What about the “presence of IGF-I oligomers” value ([6]; absence of an acid buffer, Table 6B) of the same compound?
A: increased presence of IGF-I oligomers in the absence of an acid buffer

Q: What about the “solubility and bioavailability of encapsulated IGF-I versus pH” value ([7]; 10 to 80 mg/mL IGF-I, with or without 100 mM HCl or 25 mM citric acid) of the same compound?
A: varied according to pH of the first aqueous component

Q: And the solubility ([7]; pH below 5)?
A: about 300 mg/mL

Q: And the “% Lipocrit” value ([8]; 5.0 w/v % sucrose, ~216 mOsm)?
A: 36.7%

Q: And the “% Lipocrit” value ([8]; 8.0 w/v % sucrose, ~321 mOsm)?
A: 41.8%

Q: Which encapsulation efficiency [9] does the source give for cytosine arabinoside [Cytarabine] here?
A: relatively low

Q: What about the “release rate of encapsulated molecules in biological fluids” value [10] of the same compound?
A: faster than is therapeutically desirable

Q: And the “Drug Loading” value ([1]; first aqueous: 40 mg/mL, 0.0 w/v % sucrose, 20 mM citric acid, est. 185.9 mOsm)?
A: 61.7 mg/mL

Q: And the “Drug Loading” value ([1]; first aqueous: 40 mg/mL, 2.0 w/v % sucrose, 20 mM citric acid, est. 245.9 mOsm)?
A: 45.2 mg/mL

Q: And the “Drug Loading” value ([1]; first aqueous: 40 mg/mL, 5.0 w/v % sucrose, 20 mM citric acid, est. 341.9 mOsm)?
A: 30.8 mg/mL

Q: What about the “Drug Loading” value ([1]; first aqueous: 40 mg/mL, 8.0 w/v % sucrose, 20 mM citric acid, est. 446.9 mOsm) of the same compound?
A: 21.0 mg/mL

Q: What about the “% Yield” value [2] of the same compound?
A: 57.1% and 62.6% and 77.3% and 69.6%

Q: And the “effect of osmolarity of first aqueous solution on percent yield” value [2]?
A: remaining relatively constant

Reference: US6106858A, “Modulation of drug loading in multivescular liposomes” (SkyePharma, Inc., priority 1997, dated 2000)
